Laboratory results published in PMC1713233, “Implantation Serine Proteinases heterodimerize and are critical in hatching and implantation” (BMC Developmental Biology, 2006).
pIC50, pKi: −log10 of the molar value. Where a name gives a salt, the structure may show the parent alone. Read-outs that look alike come from different tables or passages of the source.

Experiments:
[1] = target: T1, ISP1-ISP2 enzyme complex (Mus musculus, UniProt Q924N9+Q99MS4); test: Inhibition of proteolytic activity of ISP enzyme complex, chromogenic assay with BAPNA as substrate; format: biochemical; settings: for Affinity for ISP enzyme: Fig. 4B, compared to Benzamidine; for pKi: from IC50 by Cheng and Prusoff equation, read-out: Dissociation Constant (Ki); for Influence on ISP activity: general trypsin inhibitors
T1 construct: The native ISP enzyme complex was purified from mouse uterine tissue homogenates; from tissue; host or cells: uterus of pregnant CD1 mice (4.5-6.5 dpc)
T1 sequence (Q924N9 27-274): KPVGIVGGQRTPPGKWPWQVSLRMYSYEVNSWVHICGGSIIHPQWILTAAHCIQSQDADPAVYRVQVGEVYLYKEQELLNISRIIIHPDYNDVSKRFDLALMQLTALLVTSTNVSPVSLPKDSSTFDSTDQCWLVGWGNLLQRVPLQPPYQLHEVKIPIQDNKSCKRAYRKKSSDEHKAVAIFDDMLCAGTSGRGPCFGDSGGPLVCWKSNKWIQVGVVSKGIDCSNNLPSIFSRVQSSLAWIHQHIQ
T1 sequence (Q99MS4 18-279): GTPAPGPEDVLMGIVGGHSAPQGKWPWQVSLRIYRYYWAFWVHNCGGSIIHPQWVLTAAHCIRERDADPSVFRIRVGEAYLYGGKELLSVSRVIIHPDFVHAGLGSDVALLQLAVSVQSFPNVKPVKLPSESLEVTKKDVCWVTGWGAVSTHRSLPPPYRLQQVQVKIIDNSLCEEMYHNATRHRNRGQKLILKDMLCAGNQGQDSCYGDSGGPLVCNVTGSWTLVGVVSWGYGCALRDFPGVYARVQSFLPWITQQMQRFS
Experimental: Many general serine proteinase inhibitors were tested in order to identify suitable ISP inhibitors when BAPNA was used as a substrate. These included Benzamidine hydrochloride, 4-(Amidino-Phenyl)-Methane-Sulfonyl Fluoride (APMSF), L-1 Chloro-3- [4-tosyl-amido]-7-amino-2-heptanone. HCl (TLCK), Trypsin Soybean Inhibitor (TSI), Bis (5-amidino-2-benzimadozolyl) methane (BABIM), Gabexate mesylate, Nafamostat, and the kunitz family serpins Uterine Plasmin-Trypsin Inhibitor (UPTI) and Secretary Leukocyte proteinase inhibitor (SLPI).
Only inhibitors specific for trypsin-like serine proteinases were able to inhibit the ISPs (Fig. 4B and Additional file 2. Table 1). IC50 (concentration of an inhibitor capable of inhibiting the enzyme activity by 50%) values were obtained by plotting inhibition data, which were extrapolated into Cheng and Prusoff's equation to derive the dissociation constant (Ki).
Chromogenic assays were carried out using the p-Nitroanilide conjugated peptidic substrates. The reaction conditions used were: 4 mM BAPNA (substrate), in 25 mM Tris.Cl (pH 8.0) and 10 mM EDTA reaction buffer, in a total reaction volume of 0.5 mL. The reactions were carried out at room temperature in a glass cuvette (1 cm path length), and scanned at wavelength maxima of 405 nm using a spectrophotometer. 1 Unit of enzyme is defined as enzyme activity sufficient for the breakdown of 1 μM of substrate/ml/min. The affinity of ISP complex with various substrates was characterized by measuring enzyme activity at differing substrate concentrations and plotting enzyme activity [V] vs. substrate concentration [S]. The Km was calculated using the Michaelis Menton equation (Km = [S] at 1/2 Vmax).
IC50 values were derived by plotting enzyme activity (V) vs. inhibitor concentration [I]. Dissociation constants (Ki) values for different inhibitors were determined by using the Cheng and Prusoff equation (Ki = IC50/1 + [S]/Km).

[2] = system: blastocysts; test: In vitro embryo hatching; format: cell-based
Description: In order to define a physiological role for the ISPs, the effect of inhibiting ISP activity upon embryo hatching, outgrowth (Fig. 6 and 7) and implantation (Table 1) was investigated. Blastocysts were first cultured in the presence or absence of anti-ISP mAbs or selected inhibitors. […] Similarly, the effect of varying concentrations of anti-ISP1 and anti-ISP2 mAbs was studied both individually and together (Fig. 7C, E and 7G).
(§1) Blastocysts were collected by flushing the uteri of day 3.5 post coetum dams with M2 (Sigma Aldrich and Co.) medium. For in vitro hatching experiments, blastocysts were cultured in micro drops of Knockout DMEM medium (Invitrogen) with serum replacement in a drop under mineral oil at 37°C and 5% CO2 [27]. For in vitro embryo outgrowth onto extracellular matrix, hatched blastocysts were cultured for an additional 48 h at 37°C and 5% CO2 in DMEM plus 5% (v/v) fetal bovine serum on […] Nunc tissue culture dishes coated with extracellular matrix derived from 10% Triton X-100 (v/v) treated mouse embryo fibroblasts. Inhibitors or anti-ISP mAbs were mixed into media at stated concentrations. For antibody inhibition experiments, anti-ISP hybridoma supernatants (or negative control supernatants) were mixed with embryo culture media at an appropriate concentration. For inhibitor experiments, negative controls contained the medium used to dispense Gabexate mesylate.

[3] = system: hatched blastocysts; test: In vitro embryo outgrowth onto extracellular matrix; format: cell-based; settings: for Embryo death: 48 hrs
Description: Implantation was simulated in vitro by growth of the hatched blastocysts in culture plates coated with the extracellular matrix derived from mouse embryonic fibroblasts, which can be invaded by outgrowing embryos (Fig. 6C and 6D). The effect of Gabexate on blastocyst outgrowth is also incremental with increasing concentration of Gabexate (Fig. 7B). […] A similar result was not observed for individual or combined mAbs, possibly owing to the abundance of ISP enzyme that occurs within the uterine fluid.
as §1

[4] = system: embryo implantation; test: Effect on pregnancy after injection into the uterine lumen; format: in vivo, CD1 mice; settings: for # pregnant / # embryos: 10 ul of 10 mM per uterine horn at 2.5 dpc, examined at 7.5 dpc; for Rate (%) of pregnancy: rate of pregnancy in Controls assumed as 100%
Experimental: CD1 mice were obtained at the age of 6–8 weeks from Charles River Canada (St. Constant, Quebec) and maintained in a standard laboratory animal facility with controlled temperature (20°C), humidity and light cycle (lights on between 0700 and 1900 hr). The maintenance and treatment of animals was in full compliance with the Standard laboratory animal care protocols approved by the University of Calgary Animal Care Committee. To obtain natural pregnancies, female mice were paired with adult males and checked daily for the presence of vaginal copulatory plugs, as an indication of mating. The day of plug detection is designated as day 0.5 post coetum. For collection of uteri and embryos, pregnant dams were sacrificed on a specific day by cervical dislocation.
Uterine horns were exposed surgically whereupon inhibitor or anti-ISP antibodies were injected into the uterine lumen using the minimum possible volume (10 μl fluid was injected per horn). Since Gabexate was dissolved in normal saline, the control mice were injected with normal saline solution.

[5] = system: hatched blastocysts; test: In vitro embryo outgrowth onto extracellular matrix; format: cell-based
[6] = 4 mM BAPNA substrate, 25 mM Tris.Cl pH 8.0, room temperature, read-out: IC50%
[7] = Expt 06, 0.01 mM, 5 embryos/drop, control 4
[8] = Expt 06, 0.05 mM, 5 embryos/drop, control 4
[9] = Expt 06, 0.1 mM, 5 embryos/drop, control 4
[10] = Expt 07, 0.1 mM, 5 embryos/drop, control 6 of 6
[11] = Expt 07, 0.5 mM, 6 embryos/drop, control 6
[12] = Expt 04, 0.1 mM, 6 embryos/drop, control 6
[13] = Expt 04, 0.25 mM, 6 embryos/drop, control 6

UPTI: rPorcine Uterine Plasmin Trypsin Inhibitor
pIC50 ([1]; BAPNA substrate, no effect up to stated concentration, read-out: IC50% (No effect up to)): < 0.30

CCOC(=O)c1ccc(OC(=O)CCCCCNC(=N)N)cc1 [Gabexate mesylate]
pIC50 [1, 6]: 2.74
Affinity for ISP enzyme [1]: relatively high affinity
pKi ([1]; BAPNA substrate): 3.31
Influence on ISP activity [1]: inhibitory influence
Embryo death ([2]; CD1, mouse, 24 h, 0.1 mM): all died
Embryo death ([2]; CD1, mouse, 24 h, 0.5 mM): all died
Embryo death ([2]; CD1, mouse, 24 h, 2 mM): all died
Embryos hatched after 24 hrs. ([2]; Expt 05, 0.1 mM, 6 embryos/drop, control 6): 0
Embryos hatched after 24 hrs. ([2]; Expt 05, 0.5 mM, 6 embryos/drop, control 6): 0
Embryos hatched after 24 hrs. ([2]; Expt 05, 2.0 mM, 6 embryos/drop, control 6): 0
Embryos hatched after 24 hrs. [2, 7]: 4
Embryos hatched after 48 hrs. [2, 7]: 4
Embryos hatched after 24 hrs. [2, 8]: 4
Embryos hatched after 48 hrs. [2, 8]: 4
Embryos hatched after 24 hrs. [2, 9]: 0
Embryos hatched after 48 hrs. [2, 9]: 2
Embryos hatched after 24 hrs. [2, 10]: 0
Embryos hatched after 48 hrs. [2, 10]: 2
Embryos hatched after 24 hrs. [2, 11]: 0
Embryos hatched after 48 hrs. [2, 11]: 0
Embryos hatched after 24 hrs. ([2]; Expt 08, 0.1 mM, 16 embryos/drop, control 4 of 17): 3
Embryos hatched after 48 hrs. ([2]; Expt 08, 0.1 mM, 16 embryos/drop, control 12 of 17): 3
Embryos hatched after 24 hrs. ([2]; Expt 08, 0.5 mM, 17 embryos/drop, control 4): 1
Embryos hatched after 48 hrs. ([2]; Expt 08, 0.5 mM, 17 embryos/drop, control 12): 3
Effect on in vitro embryo hatching ([2]; compared to controls): almost completely inhibited
Embryos outgrown after 48 hrs. ([3]; Experiment 03, 0.1 mM, 8 hatched embryos, control 5): 0
Embryos outgrown after 48 hrs. ([3]; Experiment 03, 0.5 mM, 8 hatched embryos, control 5): 1
Embryos outgrown after 48 hrs. ([3]; Experiment 04, 0.1 mM, 11 hatched embryos, control 6): 5
Embryos outgrown after 48 hrs. ([3]; Experiment 04, 0.5 mM, 11 hatched embryos, control 6): 1
Effect on in vitro embryo outgrowth ([3]; compared to controls): almost completely inhibited
# pregnant ([4]; group 1, 11 mice, Control 1: 6 of 6): 1
# embryos ([4]; group 1, 11 mice, Control 1: 72): 2
Rate (%) of pregnancy ([4]; group 1): 2.8%
# pregnant ([4]; group 2, 6 mice, Control 2: 4 of 4): 1
# embryos ([4]; group 2, 6 mice, Control 2: 22): 3
Rate (%) of pregnancy ([4]; group 2): 13.6%
Effect on embryo implantation in vivo ([4]; injected into the uterine lumen at 2.5 dpc, compared with controls): rate of pregnancy drops to very low
Embryos outgrown after 72 hrs. ([5]; Experiment 03, 0.1 mM, 8 hatched embryos, control 7): 4
Embryos outgrown after 72 hrs. ([5]; Experiment 03, 0.5 mM, 8 hatched embryos, control 7): 2
Embryos outgrown after 72 hrs. ([5]; Experiment 04, 0.1 mM, 11 hatched embryos, control 9): 6
Embryos outgrown after 72 hrs. ([5]; Experiment 04, 0.5 mM, 11 hatched embryos, control 9): 2

N=C(N)c1ccc2[nH]c(Cc3nc4cc(C(=N)N)ccc4[nH]3)nc2c1 [BABIM, Bis (5-amidino-2-benzimadozolyl) methane]
pIC50 [1, 6]: 3.12
Affinity for ISP enzyme [1]: relatively high affinity
pKi ([1]; BAPNA substrate): 3.69
Influence on ISP activity [1]: inhibitory influence
Embryos hatched after 24 hrs. [2, 12]: 5
Embryos hatched after 48 hrs. [2, 12]: 6
Embryos hatched after 24 hrs. [2, 13]: 1
Embryos hatched after 48 hrs. [2, 13]: 1
Embryo death ([2]; Expt 04, 0.5 mM, 6 embryos/drop, 24 hrs): all died
Embryos hatched after 24 hrs. ([2]; Expt 04, 0.5 mM, 6 embryos/drop, control 6): 0

Cc1ccc(S(=O)(=O)N[C@@H](CCCCN)C(=O)CCl)cc1.Cl [TLCK, L-1-chloro-3[4-tosyl-amido]-7-amino-2-heptanone-HCl]
pIC50 [1, 6]: 2.10
pKi ([1]; BAPNA substrate): 2.66
Influence on ISP activity [1]: inhibitory influence

N=C(N)c1ccc(CS(=O)(=O)F)cc1 [APMSF, 4-(Amidino-Phenyl)-Methane-Sulfonyl Fluoride]
pIC50 [1, 6]: 1.71
pKi ([1]; BAPNA substrate): 2.27
Influence on ISP activity [1]: inhibitory influence

N=C(N)c1ccccc1 [Benzamidine hydrochloride]
pKi ([1]; BAPNA substrate): 1.35
Influence on ISP activity [1]: inhibitory influence
Embryo death ([2]; Expt 01, 50 mM, 12 embryos/drop, 24 hrs): all died
Embryos hatched after 24 hrs. ([2]; Expt 01, 50 mM, 12 embryos/drop, control 9): 0
Embryo death ([2]; Expt 02, 20 mM, 10 embryos/drop, 24 hrs): all died
Embryos hatched after 24 hrs. ([2]; Expt 02, 20 mM, 10 embryos/drop, control 5): 0
Embryos hatched after 24 hrs. ([2]; Expt 03, 0.5 mM, 11 embryos/drop, control 5): 3
Embryos hatched after 48 hrs. ([2]; Expt 03, 0.5 mM, 11 embryos/drop, control 10): 4
Embryos hatched after 24 hrs. ([2]; Expt 03, 1 mM, 11 embryos/drop, control 5): 4
Embryos hatched after 48 hrs. ([2]; Expt 03, 1 mM, 11 embryos/drop, control 10): 7
Embryos hatched after 24 hrs. ([2]; Expt 03, 4 mM, 11 embryos/drop, control 5): 2
Embryos hatched after 48 hrs. ([2]; Expt 03, 4 mM, 11 embryos/drop, control 10): 2
Embryo death ([3]; Experiment 01, 50 mM, 12 hatched embryos): all died
Embryos outgrown after 48 hrs. ([3]; Experiment 01, 50 mM, 12 hatched embryos, control 9): 0
Embryo death ([3]; Experiment 02, 4 mM, 10 hatched embryos): all died
Embryos outgrown after 48 hrs. ([3]; Experiment 02, 4 mM, 10 hatched embryos, control 10): 0
